Reference: publication PMC4942819 (Scientific Reports, 2016)
In brackets after ≈: the same amount, converted by molar mass. Like-named read-outs stand apart in the source and are kept apart here.

Legend:
[1] = tested on: MDR-TB clinical isolates; assay: microbe, parasite or virus in culture; type: cell-based; conditions: Mycobacterium tuberculosis
[2] = tested on: XDR-TB clinical isolates; assay: microbe, parasite or virus in culture; type: cell-based, Mycobacterium tuberculosis; conditions: for MIC: Mycobacterium tuberculosis
[3] = tested on: M. tuberculosis H37Rv; assay: MABA checkerboard synergy assay; type: cell-based, Mycobacterium tuberculosis
[4] = tested on: M. tuberculosis Erdman in J774A.1 cells; assay: macrophage assay, intracellular activity; type: cell-based, Mycobacterium tuberculosis
Method: As described previously, J774A.1 cells were grown in 75-cm2 cell culture flasks in 10% FBS in Dulbecco’s modified Eagle’s medium (DMEM) until confluency. The cells were detached using a cell scraper, and then centrifuged at 200 g for 5 min at room temperature. The cells were incubated at 37 °C under 5% CO2 for 16 h after distributing into 24-well plates containing coverslips. M. tuberculosis Erdman (ATCC 35801) were diluted to a final concentration of 1 × 10^5 to 3 × 10^5 CFU/mL with DMEM after thawing and sonicating from frozen cultures. And 500 ul of the dilution was dispensed to each well of a new 24-well plate. Followed by, J774A.1 cells on coverslips were infected by incubation with M. tuberculosis Erdman at 37 °C for 2 h. Coverslips were then washed with HBSS and transferred to new 24-well plates. The Cultures were treated in triplicate with compounds at 0.02 μM containing DMEM and incubated at 37 °C under 5% CO2 for 16 h. At D 0 (for untreated controls) and after 7 days of incubation, macrophage cells were lysed by addition of 200 μL of 0.25% sodium dodecyl sulfate. The plates were incubated at 37 °C for 10 min, and 200 μL of DMEM was added. The lysate was sampled using a microtube and sonicated for 15 s. Then 1:1, 1:10, 1:100, and 1:1,000 dilutions were plated on 7H11 agar plates and CFU counts determined after 2 to 3 weeks of incubation at 37 °C.

[5] = tested on: M. tuberculosis Erdman; assay: in vivo acute M.tb Erdman infection mouse model; parameters: species or system Mycobacterium tuberculosis; conditions: BALB/c mice
[6] = read-out: MIC, MDR-TB strain M3
[7] = read-out: MIC, MDR-TB strain M4
[8] = read-out: MIC, MDR-TB strain M8
[9] = read-out: MIC, MDR-TB strain M18
[10] = read-out: MIC, XDR-TB strain X15
[11] = read-out: MIC, XDR-TB strain X17
[12] = clinical isolate, Table 2 prints no unit, test range 0.0156 to 64 μg/mL

## [H]/N=C(/N)N[C@H]1[C@H](O)[C@@H](O)[C@H](O[C@@H]2O[C@@H](C)[C@](O)(C=O)[C@H]2O[C@@H]2O[C@@H](CO)[C@H](O)[C@@H](O)[C@@H]2NC)[C@@H](N/C(N)=N\[H])[C@@H]1O [SM, streptomycin]
[1]; [6]
  MIC: 64 µg/mL (≈ 110 µM)
[1]; [7]
  MIC: 8 µg/mL (≈ 13.8 µM)
[1]; [8]
  MIC: 64 µg/mL (≈ 110 µM)
[1]; [9]
  MIC: 64 µg/mL (≈ 110 µM)
[2]; [10]
  MIC: 8 µg/mL (≈ 13.8 µM)
[2]; [11]
  MIC: 64 µg/mL (≈ 110 µM)

## CO[C@H]1/C=C/O[C@@]2(C)Oc3c(C)c(O)c4c(O)c(c(/C=N/N5CCN(C)CC5)c(O)c4c3C2=O)NC(=O)/C(C)=C\C=C\[C@H](C)[C@H](O)[C@@H](C)[C@@H](O)[C@@H](C)[C@H](OC(C)=O)[C@@H]1C [RMP, rifampicin]
[1]; [6]
  MIC: 64 µg/mL (≈ 77.8 µM)
[1]; [7]
  MIC: 64 µg/mL (≈ 77.8 µM)
[1]; [8]
  MIC: 64 µg/mL (≈ 77.8 µM)
[1]; [9]
  MIC: 64 µg/mL (≈ 77.8 µM)
[2]; [10]
  MIC: 64 µg/mL (≈ 77.8 µM)
[2]; [11]
  MIC: 64 µg/mL (≈ 77.8 µM)
[3]; in combination with BTZ043
  MIC against H37Rv, MIC in combo.: 0.007 µg/mL
[3]; in combination with TB1001
  MIC against H37Rv, MIC in combo.: 0.001 µg/mL
[3]; in the presence of SKLB-TB1001
  decrease of MIC: 6 fold
[4]; J774A.1 macrophages, 0.02 μM (Fig. 2 legend: 0.02 μg/mL), 7 days
  Log10 CFU, intracellular Mtb Erdman: 6.44
[4]; decrease of log10 CFU between D7 and treatment group, J774A.1, 0.02 μM (Fig. 2 legend: 0.02 μg/mL)
  Fold(log) reduction: 0.41 log
[5]; 15 mg/kg oral
  reduction of bacterial concentration in lungs compared to vehicle control group: 2.5 logs
[5]; Day-36, 15 mg/kg oral daily from day 10
  Log10 CFU (SD), bacterial burden in mouse lungs: 3.73 (3.19)

## CC1COc2c(N3CCN(C)CC3)c(F)cc3c(=O)c(C(=O)O)cn1c23 (stereo not drawn) [OFLX, ofloxacin]
[2]; [10]
  MIC: 8 µg/mL (≈ 22.1 µM)
[2]; [11]
  MIC: 32 µg/mL (≈ 88.6 µM)

## C[C@H]1COc2c(N3CCN(C)CC3)c(F)cc3c(=O)c(C(=O)O)cn1c23 [LVFX, levo-ofloxacin]
[2]; [12]
  MIC, XDR-TB strain X15: 4 µg/mL (≈ 11.1 µM)
  MIC, XDR-TB strain X17: 32 µg/mL (≈ 88.6 µM)

## COc1c(N2C[C@@H]3CCCN[C@@H]3C2)c(F)cc2c(=O)c(C(=O)O)cn(C3CC3)c12 [MOX, moxifloxacin]
[3]; Mycobacterium tuberculosis, H37RV, 336 h, checkerboard, drug alone, read-out: MIC against H37Rv, MIC alone
  MIC: 0.037 µg/mL
[3]; in combination with TB1001
  MIC against H37Rv, MIC in combo.: 0.021 µg/mL

## NCC[C@H](O)C(=O)N[C@@H]1C[C@H](N)[C@@H](O[C@H]2O[C@H](CN)[C@@H](O)[C@H](O)[C@H]2O)[C@H](O)[C@H]1O[C@H]1O[C@H](CO)[C@@H](O)[C@H](N)[C@H]1O [AMK, amikacin]
[2]; [10]
  MIC: 64 µg/mL (≈ 109 µM)
[2]; [11]
  MIC: 64 µg/mL (≈ 109 µM)
